Test results as given in ChEMBL document CHEMBL1275561, “In vitro activities of doripenem, a new broad-spectrum carbapenem, against recently collected clinical anaerobic isolates, with emphasis on the Bacteroides fragilis group” (2008).

System: Clostridium perfringens
Test: Antimicrobial activity against Clostridium perfringens assessed as resistant isolates by agar dilution method
Assay type: functional

Compound | Activity
C[C@@H](O)[C@H]1C(=O)N2C(C(=O)O)=C(S[C@@H]3CN[C@H](C(=O)Nc4cccc(C(=O)O)c4)C3)[C@H](C)[C@H]12 | 0%
CC1(C)S[C@@H]2[C@H](NC(=O)[C@H](N)c3ccccc3)C(=O)N2[C@H]1C(=O)O [AMPICILLIN] | 0%
CO[C@@]1(NC(=O)Cc2cccs2)C(=O)N2C(C(=O)O)=C(COC(N)=O)CS[C@@H]21 [CEFOXITIN] | 0%
CCC[C@@H]1C[C@@H](C(=O)N[C@@H]([C@H]2O[C@H](SC)[C@H](O)[C@@H](O)[C@H]2O)[C@H](C)Cl)N(C)C1 [CLINDAMYCIN] | 0%
C[C@@H](O)[C@H]1C(=O)N2C(C(=O)O)=C(S[C@@H]3CN[C@H](CNS(N)(=O)=O)C3)[C@H](C)[C@H]12 [DORIPENEM] | 0%
C[C@@H](O)[C@H]1C(=O)N2C(C(=O)O)=C(SCCNC=N)C[C@H]12 [IMIPENEM ANHYDROUS] | 0%
CC(=O)NC[C@H]1CN(c2ccc(N3CCOCC3)c(F)c2)C(=O)O1 [LINEZOLID] | 0%
C[C@@H](O)[C@H]1C(=O)N2C(C(=O)O)=C(S[C@@H]3CN[C@H](C(=O)N(C)C)C3)[C@H](C)[C@H]12 [MEROPENEM] | 0%
Cc1ncc([N+](=O)[O-])n1CCO [METRONIDAZOLE] | 7.8%
CCN1CCN(C(=O)N[C@@H](C(=O)N[C@@H]2C(=O)N3[C@@H]2SC(C)(C)[C@@H]3C(=O)O)c2ccccc2)C(=O)C1=O [PIPERACILLIN] | 0%
CN[C@H](CC(C)C)C(=O)N[C@H]1C(=O)N[C@@H](CC(N)=O)C(=O)N[C@H]2C(=O)N[C@H]3C(=O)N[C@H](C(=O)N[C@H](C(=O)O)c4cc(O)cc(O)c4-c4cc3ccc4O)[C@H](O)c3ccc(c(Cl)c3)Oc3cc2cc(c3O[C@@H]2O[C@H](CO)[C@@H](O)[C@H](O)[C@H]2O[C@H]2C[C@](C)(N)[C@H](O)[C@H](C)O2)Oc2ccc(cc2Cl)[C@H]1O [VANCOMYCIN] | 0%
